{"source": "paper PMC7394103", "about": "(Frontiers in Pharmacology, 2020)", "key": {"[1]": {"design": "method as in Schepetkin et al., 2012", "settings": "mice, 30 mg/kg i.p., serum; ref Schepetkin et al., 2012; cited from earlier work"}, "[2]": {"system": "c-Jun phosphorylation in FLS", "design": "method as in Schepetkin et al., 2015", "settings": "ref Schepetkin et al., 2015; cited from earlier work"}, "[3]": {"system": "CIA in DBA1/J mice", "settings": "ref Schepetkin et al., 2015, cited from earlier work"}, "[4]": {"design": "method as in Plotnikov et al., 2020", "settings": "rats, i.p.; ref Plotnikov et al., 2020; cited from earlier work"}, "[5]": {"system": "IL-6 secretion by synovial SW982 cells", "experiment": "IL-1β-induced IL-6 secretion by SW982 cells (ELISA)", "format": "cell-based, human", "settings": "Homo sapiens, SW982; shorter incubation period (12 h), TRYP absent; read-out: IC50, IL-1β-induced IL-6 secretion by SW982 cells", "protocol": "FLS, HUVEC, SW982, and THP-1 cells were plated in 96 well plates (10^4 to 10^5 cells/well) for 48 h before treatment. At 2 days post-confluency, the cells were serum-starved and washed twice (with the exception of THP-1 cell, which were not washed) with FBS-free medium prior to the addition of test compounds. […] Culture supernatants were collected and stored at –80°C. The levels of MMP-1 and MMP-3 were determined in culture supernatants using commercially available ELISA kits according to the manufacturer’s instructions (R&D System, Minneapolis, MN, USA). IL-6 levels were also determined in the supernatants using a human IL-6 ELISA kit (BD Biosciences, San Jose, CA, USA)."}}, "note": "Counter-ions that a name gives are not always drawn. Like-named read-outs stand apart in the source and are kept apart here."}
{"smiles": "ON=C1c2ccccc2-c2nc3ccccc3nc21", "note": "[IQ-1S, 11H-indeno[1,2-b]quinoxalin-11-one oxime salt]", "values": [{"measurement": "AUC 0–12 h", "setting": "[1]", "result": 7.4, "unit": "µM·h"}, {"measurement": "c-Jun phosphorylation", "setting": "[2]", "result": "inhibited c-Jun phosphorylation"}, {"measurement": "reduction of arthritis in the CIA model", "setting": "[3]; 5 mg/kg i.p.", "result": "not very effective"}, {"measurement": "reduction of arthritis in the CIA model", "setting": "[3]; 30 and 50 mg/kg i.p.", "result": "equally effective"}, {"measurement": "half-life in circulation", "setting": "[4]", "result": 12, "unit": "h"}, {"measurement": "time of peak serum concentration", "setting": "[4]", "result": 5, "unit": "min"}]}
{"smiles": "O=C1c2ccccc2-c2nc3ccccc3nc21", "note": "[IQ-18]", "values": [{"measurement": "anti-inflammatory activity or therapeutic effects in CIA", "setting": "[3]; 2012, Schepetkin et al.", "result": "did not have any anti-inflammatory activity or therapeutic effects in CIA"}]}
{"smiles": "Oc1c2ccccc2c2c3c(cccc13)N=N2", "note": "[SP600125, reference compound]", "values": [{"measurement": "IC50", "setting": "[5]", "result": "1300 ± 500", "unit": "nM"}]}
